In this experiment the target is T1, human GPR119 (Homo sapiens, UniProt Q8TDV5).
T1 sequence (Q8TDV5 1-308 limits assumed): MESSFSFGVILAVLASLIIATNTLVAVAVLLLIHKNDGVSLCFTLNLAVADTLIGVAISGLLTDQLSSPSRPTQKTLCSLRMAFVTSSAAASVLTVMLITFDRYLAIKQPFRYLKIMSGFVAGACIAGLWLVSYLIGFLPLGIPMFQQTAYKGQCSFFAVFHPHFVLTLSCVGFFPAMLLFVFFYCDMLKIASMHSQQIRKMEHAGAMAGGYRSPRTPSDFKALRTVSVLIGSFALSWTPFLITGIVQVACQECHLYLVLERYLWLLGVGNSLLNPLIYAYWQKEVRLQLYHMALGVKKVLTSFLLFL
Kind of experiment: Measurement of GPR119 signaling (cAMP assay; LANCE kit or HTRF) in HEK293 cells stably transfected with human GPR119. Format: cell-based. To be noted: agonist-stimulated cAMP in HEK293 cells expressing human GPR119. Summed up:
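LANCE method: cAMP detected with Eu-chelate/biotin-cAMP tracer, 3 h, read at 665 nm, converted via cAMP standards; basal from DMSO, maximum from internal agonist, 4-parameter fit.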
Background: cAMP levels reflect the balance of adenylyl cyclase and phosphodiesterase activity.
Broadly, the EC50 is the concentration needed to bring the measured effect to its halfway point. Lower therefore signals higher potency in that assay. Take `CCc1cnc(N2CCC([C@H]3C[C@H]3COCc3ccc(-c4ccnnc4)c(F)c3)CC2)nc1` [Example 115, 4-{4-[({(1R,2R)-2-[1-(5-ethylpyrimidin-2-yl)piperidin-4-yl]cyclopropyl}methoxy)methyl]-2-fluorophenyl}pyridazine]: the EC50 was determined as 1 nM. In the case of `CCc1cnc(N2CCC([C@H]3C[C@H]3COCc3ccc(-c4cnc(N)nc4)c(F)c3)CC2)nc1` [Example 118, 5-{4-[({(1R,2R)-2-[1-(5-ethylpyrimidin-2-yl)piperidin-4-yl]cyclopropyl}methoxy)methyl]-2-fluorophenyl}pyrimidin-2-amine], the response was half-maximal at 5.9 nM (EC50). Under `CCc1cnc(N2CCC([C@H]3C[C@H]3COCc3ccc(-c4cncnc4)cc3)CC2)nc1` [Example 120] stands 1.9 nM; under `CCc1cnc(N2CCC([C@H]3C[C@H]3COCc3ccc(-c4ccnnc4)cc3)CC2)nc1` [Example 121], 1.9 nM; under `CCc1cnc(N2CCC([C@H]3C[C@H]3COCc3ccc(-c4cccnn4)cc3)CC2)nc1` [Example 122], 1.1 nM. The molecule `CCc1cnc(N2CCC([C@H]3C[C@H]3COCc3ccc(-c4cnccn4)cc3)CC2)nc1` [Example 123] gave a concentration for a half-maximal effect (EC50) of 9.8 nM. Under `CCS(=O)(=O)c1ccc(COC[C@@H]2C[C@@H]2C2CCN(c3ncc(COC)cn3)CC2)c(F)c1` [Example 127, 2-(4-((1R,2R)-2-(((4-(ethylsulfonyl)-2-fluorobenzyl)oxy)methyl)cyclopropyl)piperidin-1-yl)-5-(methoxymethyl)pyrimidine] stands 2.8 nM; under `COCc1cnc(N2CCC([C@H]3C[C@H]3COCc3cc(F)c(S(C)(=O)=O)c(F)c3)CC2)nc1` [Example 128, 2-(4-((1R,2R)-2-(((3,5-difluoro-4-(methylsulfonyl)benzyl)oxy)methyl)cyclopropyl)piperidin-1-yl)-5-(methoxymethyl)pyrimidine], 4.5 nM. Molecule `CCOc1cnc(N2CCC([C@H]3C[C@H]3COCc3ccc(S(C)(=O)=O)c(F)c3)CC2)nc1` [Example 129, 5-ethoxy-2-(4-((1R,2R)-2-(((3-fluoro-4-(methylsulfonyl)benzyl)oxy)methyl)cyclopropyl)piperidin-1-yl)pyrimidine] displayed an EC50 of 1.65 nM. Then `COCc1cnc(N2CCC([C@H]3C[C@H]3COCc3ccc(-n4cnnn4)c(F)c3)CC2)nc1` [Example 132, 2-(4-((1R,2R)-2-((3-fluoro-4-(1H-tetrazol-1-yl)benzyloxy)methyl)cyclopropyl)piperidin-1-yl)-5-(methoxymethyl)pyrimidine], with 1.1 nM. Molecule `CCc1cnc(N2CCC([C@H]3C[C@H]3COCc3ccc(-n4cnnn4)cn3)CC2)nc1` [Example 133, 2-(4-((1R,2R)-2-(((5-(1H-tetrazol-1-yl)pyridin-2-yl)methoxy)methyl)cyclopropyl)piperidin-1-yl)-5-ethylpyrimidine] gave a concentration giving a half-maximal response (EC50) of 5.6 nM. As to `CC(C)c1noc(N2CCC([C@H]3C[C@H]3COCc3ccc(-n4cnnn4)cc3F)CC2)n1` [Example 134, 5-(4-((1R,2R)-2-((2-fluoro-4-(1H-tetrazol-1-yl)benzyloxy)methyl)cyclopropyl)piperidin-1-yl)-3-isopropyl-1,2,4-oxadiazole], the concentration giving a half-maximal response (EC50) is 1.7 nM. Then `COCc1noc(N2CCC([C@H]3C[C@H]3COCc3ccc(-n4cnnn4)cc3F)CC2)n1` [Example 135, 5-(4-((1R,2R)-2-((2-fluoro-4-(1H-tetrazol-1-yl)benzyloxy)methyl)cyclopropyl)piperidin-1-yl)-3-(methoxymethyl)-1,2,4-oxadiazole], with 9.8 nM; and `CC1(OC(=O)N2CCC([C@H]3C[C@H]3COCc3ccc(-n4cnnn4)cc3F)CC2)CC1` [Example 136, 1-methylcyclopropyl 4-((1R,2R)-2-((2-fluoro-4-(1H-tetrazol-1-yl)benzyloxy)methyl)cyclopropyl)piperidine-1-carboxylate], with 4.8 nM; and `CC(C)c1noc(N2CCC([C@H]3C[C@H]3COCc3ccc(CC(=O)N(C)C)cc3F)CC2)n1` [Example 137, 2-(3-fluoro-4-((((1R,2R)-2-(1-(3-isopropyl-1,2,4-oxadiazol-5-yl)piperidin-4-yl)cyclopropyl)methoxy)methyl)phenyl)-N,N-dimethylacetamide], with 1.6 nM. As to `COC1CN(C(=O)Cc2ccc(COC[C@@H]3C[C@@H]3C3CCN(c4nc(C(C)C)no4)CC3)c(F)c2)C1` [Example 138, 2-(3-fluoro-4-((((1R,2R)-2-(1-(3-isopropyl-1,2,4-oxadiazol-5-yl)piperidin-4-yl)cyclopropyl)methoxy)methyl)phenyl)-1-(3-methoxyazetidin-1-yl)ethanone], the EC50 is 2.2 nM. This EC50 and that of the molecule before are within 1.5-fold of each other. For `CC(C)c1noc(N2CCC([C@H]3C[C@H]3COCc3ccc(CC(=O)N4CC(F)C4)cc3F)CC2)n1` [Example 139, 2-(3-fluoro-4-((((1R,2R)-2-(1-(3-isopropyl-1,2,4-oxadiazol-5-yl)piperidin-4-yl)cyclopropyl)methoxy)methyl)phenyl)-1-(3-fluoroazetidin-1-yl)ethanone], the EC50 worked out at 0.89 nM. Then `CC(C)c1noc(N2CCC([C@H]3C[C@H]3COCc3ccc(CC(=O)N(C)C)c(F)c3)CC2)n1` [Example 140, 2-(2-fluoro-4-((((1R,2R)-2-(1-(3-isopropyl-1,2,4-oxadiazol-5-yl)piperidin-4-yl)cyclopropyl)methoxy)methyl)phenyl)-N,N-dimethylacetamide], with 0.66 nM; and `CC(C)c1noc(N2CCC([C@H]3C[C@H]3COCc3ccc(CC(=O)N4CCOCC4)c(F)c3)CC2)n1` [Example 141, 2-(2-fluoro-4-((((1R,2R)-2-(1-(3-isopropyl-1,2,4-oxadiazol-5-yl)piperidin-4-yl)cyclopropyl)methoxy)methyl)phenyl)-1-morpholinoethanone], with 1.2 nM; and `COC1CN(C(=O)Cc2ccc(COC[C@@H]3C[C@@H]3C3CCN(c4nc(C(C)C)no4)CC3)cc2F)C1` [Example 142, 2-(2-fluoro-4-((((1R,2R)-2-(1-(3-isopropyl-1,2,4-oxadiazol-5-yl)piperidin-4-yl)cyclopropyl)methoxy)methyl)phenyl)-1-(3-methoxyazetidin-1-yl)ethanone], with 0.95 nM.

With `CC(C)c1noc(N2CCC([C@H]3C[C@H]3COCc3ccc(CC(=O)N4CC(O)C4)c(F)c3)CC2)n1` [Example 143, 2-(2-fluoro-4-((((1R,2R)-2-(1-(3-isopropyl-1,2,4-oxadiazol-5-yl)piperidin-4-yl)cyclopropyl)methoxy)methyl)phenyl)-1-(3-hydroxyazetidin-1-yl)ethanone], the EC50 is 6.3 nM.

As to `COCc1noc(N2CCC([C@H]3C[C@H]3COCc3ccc(CC(=O)N4CCC4)c(F)c3)CC2)n1` [Example 144, 1-(azetidin-1-yl)-2-(2-fluoro-4-((((1R,2R)-2-(1-(3-(methoxymethyl)-1,2,4-oxadiazol-5-yl)piperidin-4-yl)cyclopropyl)methoxy)methyl)phenyl)ethanone], the response was half-maximal at 11.4 nM (EC50). Against the preceding molecule, the EC50 is about 1.8-fold higher. `COCc1cnc(N2CCC([C@H]3C[C@H]3COCc3ccc(CC(=O)N4CCC4)cc3F)CC2)nc1` [Example 145, 1-(azetidin-1-yl)-2-(3-fluoro-4-((((1R,2R)-2-(1-(5-(methoxymethyl)pyrimidin-2-yl)piperidin-4-yl)cyclopropyl)methoxy)methyl)phenyl)ethanone] showed an EC50 of 5.16 nM. Against the preceding molecule, the EC50 is about 2.2-fold lower. Under `COCc1cnc(N2CCC([C@H]3C[C@H]3COCc3ccc(CC(=O)N4CCOCC4)cc3F)CC2)nc1` [Example 146, 2-(3-fluoro-4-((((1R,2R)-2-(1-(5-(methoxymethyl)pyrimidin-2-yl)piperidin-4-yl)cyclopropyl)methoxy)methyl)phenyl)-1-morpholinoethanone] stands 3.23 nM; under `COCc1cnc(N2CCC([C@H]3C[C@H]3COCc3ccc(CC(=O)N(C)C)cc3F)CC2)nc1` [Example 147, 2-(3-fluoro-4-((((1R,2R)-2-(1-(5-(methoxymethyl)pyrimidin-2-yl)piperidin-4-yl)cyclopropyl)methoxy)methyl)phenyl)-N,N-dimethylacetamide], 2.52 nM; under `COCc1cnc(N2CCC([C@H]3C[C@H]3COCc3ccc(CC(=O)N4CC(F)C4)cc3F)CC2)nc1` [Example 148, 2-(3-fluoro-4-((((1R,2R)-2-(1-(5-(methoxymethyl)pyrimidin-2-yl)piperidin-4-yl)cyclopropyl)methoxy)methyl)phenyl)-1-(3-fluoroazetidin-1-yl)ethanone], 3.56 nM.

The values are drawn from patent US9006228B2 (Merck Sharp & Dohme Corp., priority 2011, dated 2015).
